# Laboratory results as given in US9708308B2, “Factor IXa inhibitors” (Merck Sharp & Dohme Corp., priority 2012, dated 2017).
# Molecular target: Factor IXa (Homo sapiens, UniProt P00740)
# Assay: Determination of inhibitory activity against Factor IXa (cleavage of fluorescent peptide substrate)
# Assay type: biochemical
# Details: cleavage of fluorescent peptide CH3SO2-D-CHG-Gly-Arg-AFC, release of AFC; read-out: FIXa IC50
# Text: • (R)—N-(3-aminobenzo[d]isoxazol-6-yl)-2-hydroxy-2-((R)-4-(1-(6-methoxypyridazin-4-yl)-1H-pyrazol-3-yl)-6,6-dimethyl-3-oxomorpholin-2-yl)acetamide. Determination of Inhibitory Activity Against Factor IXa
# Formation of a clot to stem bleeding at a site of blood vessel injury involves the coordinated activity of a group of plasma proteins that initiate and propagate fibrin formation and subsequently protect fibrin from premature degradation. Factor IX is a key component of the plasma system that forms a fibrin clot at a site of vascular injury. The activity of Factor IXa is measured by monitoring the cleavage of the fluorescent peptide, CH3SO2-D-CHG-Gly-Arg-AFC.AcOH (“CHG” is cyclohexyl-glycine and “AFC” is trifluoro aminomethyl coumarin). Factor IXa cleaves the amide bond between Arg and AFC, thereby releasing the AFC fluorophore. The free AFC can be detected with a fluorescence detector at an excitation wavelength of 405 nm and emission wavelength of 510 nm.
# Sequence of Factor IXa (P00740 227-461 limits assumed): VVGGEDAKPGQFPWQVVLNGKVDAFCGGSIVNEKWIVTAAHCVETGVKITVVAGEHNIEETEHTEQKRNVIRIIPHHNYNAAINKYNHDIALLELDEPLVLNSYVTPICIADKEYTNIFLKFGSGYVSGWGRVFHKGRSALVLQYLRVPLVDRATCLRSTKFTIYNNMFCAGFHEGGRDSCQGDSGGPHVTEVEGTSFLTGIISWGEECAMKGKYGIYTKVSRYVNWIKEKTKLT
# Sequence of Factor IXa (P00740 47-191 partner limits assumed): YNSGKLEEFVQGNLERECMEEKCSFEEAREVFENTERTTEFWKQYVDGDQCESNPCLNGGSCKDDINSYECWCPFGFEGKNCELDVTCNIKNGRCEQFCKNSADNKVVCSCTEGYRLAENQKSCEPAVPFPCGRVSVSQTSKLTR
row,SMILES,IC50 [nM]
1,"COc1cc(-n2ccc(N3CCO[C@H]([C@@](C)(O)C(=O)Nc4ccc5c(N)noc5c4)C3=O)n2)ccn1 [Example 1, (2R)—N-(3-Amino-1,2-benzoxazol-6-yl)-2-hydroxy-2-[(2R)-4-[1-(2-methoxy-4-pyridyl)pyrazol-3-yl]-3-oxo-morpholin-2-yl]propanamide]",160
2,Cc1cc(N2CCO[C@H]([C@@](C)(O)C(=O)Nc3ccc4c(N)noc4c3)C2=O)nn1-c1cnnc(C#N)c1 [Example 3],68.4
3,CCOc1cc(-n2ccc(N3CCO[C@H]([C@@](C)(O)C(=O)Nc4ccc5c(N)noc5c4)C3=O)n2)cnn1 [Example 4],23.2
4,"C[C@](O)(C(=O)Nc1ccc2c(N)noc2c1)[C@H]1OCCN(c2ccn(-c3cnnc(C(N)=O)c3)n2)C1=O [Example 5, 5-(3-((R)-2-((R)-1-((3-Aminobenzo[d]isoxazol-6-yl)amino)-2-hydroxy-1-oxopropan-2-yl)-3-oxomorpholino)-1H-pyrazol-1-yl)pyridazine-3-carboxamide]",20.2
5,"C[C@](O)(C(=O)Nc1ccc2c(N)noc2c1)[C@H]1OCCN(c2ccn(-c3cnnc(OC(CO)CCl)c3)n2)C1=O (stereo partly drawn) [Example 6, (2R)—N-(3-Aminobenzo[d]isoxazol-6-yl)-2-((2R)-4-(1-(6-((1-chloro-3-hydroxypropan-2-yl)oxy)pyridazin-4-yl)-1H-pyrazol-3-yl)-3-oxomorpholin-2-yl)-2-hydroxypropanamide]",975
6,"C[C@](O)(C(=O)Nc1ccc2c(N)noc2c1)[C@H]1OCCN(c2ccn(-c3ccc(=O)n(C(F)F)c3)n2)C1=O [Example 7, (R)—N-(3-Aminobenzo[d]isoxazol-6-yl)-2-((R)-4-(1-(1-(difluoromethyl)-6-oxo-1,6-dihydropyridin-3-yl)-1H-pyrazol-3-yl)-3-oxomorpholin-2-yl)-2-hydroxypropanamide]",18.1
7,"C[C@](O)(C(=O)Nc1ccc2c(N)noc2c1)[C@H]1OCCN(c2ccn(-c3ccc(F)cc3)n2)C1=O [Example 13, (R)—N-(3-aminobenzo[d]isoxazol-6-yl)-2-((R)-4-(1-(4-fluorophenyl)-1H-pyrazol-3-yl)-3-oxomorpholin-2-yl)-2-hydroxypropanamide]",678
8,"C[C@](O)(C(=O)Nc1ccc2c(N)noc2c1)[C@H]1OCCN(c2ccn(-c3ccc(S(C)(=O)=O)cc3)n2)C1=O [Example 14, (R)—N-(3-aminobenzo[d]isoxazol-6-yl)-2-hydroxy-2-((R)-4-(1-(4-(methylsulfonyl)phenyl)-1H-pyrazol-3-yl)-3-oxomorpholin-2-yl)propanamide]",13.2
9,"C[C@](O)(C(=O)Nc1ccc2c(N)noc2c1)[C@H]1OCCN(c2ccn(-c3ccc(C(=O)O)cc3)n2)C1=O [Example 15, 4-(3-((R)-2-((R)-1-((3-aminobenzo[d]isoxazol-6-yl)amino)-2-hydroxy-1-oxopropan-2-yl)-3-oxomorpholino)-1H-pyrazol-1-yl)benzoic acid]",289
10,"C[C@](O)(C(=O)Nc1ccc2c(N)noc2c1)[C@H]1OCCN(c2ccn(-c3ccc(C#N)c(Cl)c3)n2)C1=O [Example 16, (R)—N-(3-aminobenzo[d]isoxazol-6-yl)-2-((R)-4-(1-(3-chloro-4-cyanophenyl)-1H-pyrazol-3-yl)-3-oxomorpholin-2-yl)-2-hydroxypropanamide]",137
11,"C[C@](O)(C(=O)Nc1ccc2c(N)noc2c1)[C@H]1OCCN(c2nn(-c3ccc(F)cc3)cc2F)C1=O [Example 17, (R)—N-(3-aminobenzo[d]isoxazol-6-yl)-2-((R)-4-(4-fluoro-1-(4-fluorophenyl)-1H-pyrazol-3-yl)-3-oxomorpholin-2-yl)-2-hydroxypropanamide]",548
12,"Cc1cc(-n2ccc(N3CCO[C@H]([C@@](C)(O)C(=O)Nc4ccc5c(N)noc5c4)C3=O)n2)ccn1 [Example 19, (R)—N-(3-aminobenzo[d]isoxazol-6-yl)-2-hydroxy-2-((R)-4-(1-(2-methylpyridin-4-yl)-1H-pyrazol-3-yl)-3-oxomorpholin-2-yl)propanamide]",71.9
13,"C[C@](O)(C(=O)Nc1ccc2c(N)noc2c1)[C@H]1OCCN(c2ccn(-c3ccnc(C#N)c3)n2)C1=O [Example 21, (R)—N-(3-aminobenzo[d]isoxazol-6-yl)-2-((R)-4-(1-(2-cyanopyridin-4-yl)-1H-pyrazol-3-yl)-3-oxomorpholin-2-yl)-2-hydroxypropanamide]",16
14,"C[C@](O)(C(=O)Nc1ccc2c(N)noc2c1)[C@H]1OCCN(c2ccn(-c3ccnc(C(F)(F)F)c3)n2)C1=O [Example 22, (R)—N-(3-aminobenzo[d]isoxazol-6-yl)-2-hydroxy-2-((R)-3-oxo-4-(1-(2-(trifluoromethyl)pyridin-4-yl)-1H-pyrazol-3-yl)morpholin-2-yl)propanamide]",36.9
15,"CCOc1cc(-n2ccc(N3CCO[C@H]([C@@](C)(O)C(=O)Nc4ccc5c(N)noc5c4)C3=O)n2)ccn1 [Example 23, (R)—N-(3-aminobenzo[d]isoxazol-6-yl)-2-((R)-4-(1-(2-ethoxypyridin-4-yl)-1H-pyrazol-3-yl)-3-oxomorpholin-2-yl)-2-hydroxypropanamide]",113
16,"CC(C)Oc1cc(-n2ccc(N3CCO[C@H]([C@@](C)(O)C(=O)Nc4ccc5c(N)noc5c4)C3=O)n2)ccn1 [Example 24, (R)—N-(3-aminobenzo[d]isoxazol-6-yl)-2-hydroxy-2-((R)-4-(1-(2-isopropoxypyridin-4-yl)-1H-pyrazol-3-yl)-3-oxomorpholin-2-yl)propanamide]",387
17,"CN(C)c1cc(-n2ccc(N3CCO[C@H]([C@@](C)(O)C(=O)Nc4ccc5c(N)noc5c4)C3=O)n2)ccn1 [Example 25, (R)—N-(3-aminobenzo[d]isoxazol-6-yl)-2-((R)-4-(1-(2-(dimethylamino)pyridin-4-yl)-1H-pyrazol-3-yl)-3-oxomorpholin-2-yl)-2-hydroxypropanamide]",95.4
18,"COc1cc(-n2ccc(N3CCO[C@H]([C@@](C)(O)C(=O)Nc4ccc5c(N)noc5c4)C3=O)n2)c(Br)cn1 [Example 26, (R)—N-(3-aminobenzo[d]isoxazol-6-yl)-2-((R)-4-(1-(5-bromo-2-methoxypyridin-4-yl)-1H-pyrazol-3-yl)-3-oxomorpholin-2-yl)-2-hydroxypropanamide]",346
19,"COc1cc(-n2ccc(N3CCO[C@H]([C@@](C)(O)C(=O)Nc4ccc5c(N)noc5c4)C3=O)n2)c(F)cn1 [Example 27, (R)—N-(3-aminobenzo[d]isoxazol-6-yl)-2-((R)-4-(1-(5-fluoro-2-methoxypyridin-4-yl)-1H-pyrazol-3-yl)-3-oxomorpholin-2-yl)-2-hydroxypropanamide]",148
20,"COc1cc(-n2ccc(N3CCO[C@H]([C@@](C)(O)C(=O)Nc4ccc5c(N)noc5c4)C3=O)n2)c(Cl)cn1 [Example 28, (R)—N-(3-aminobenzo[d]isoxazol-6-yl)-2-((R)-4-(1-(5-chloro-2-methoxypyridin-4-yl)-1H-pyrazol-3-yl)-3-oxomorpholin-2-yl)-2-hydroxypropanamide]",445
21,"COc1cc(-n2ccc(N3CCO[C@H]([C@@](C)(O)C(=O)Nc4ccc5c(N)noc5c4)C3=O)n2)c(C(F)(F)F)cn1 [Example 29, (R)—N-(3-aminobenzo[d]isoxazol-6-yl)-2-hydroxy-2-((R)-4-(1-(2-methoxy-5-(trifluoromethyl)pyridin-4-yl)-1H-pyrazol-3-yl)-3-oxomorpholin-2-yl)propanamide]",106
22,"C[C@](O)(C(=O)Nc1ccc2c(N)noc2c1)[C@H]1OCCN(c2nn(-c3ccnc(C(F)(F)F)c3)cc2F)C1=O [Example 30, (R)—N-(3-aminobenzo[d]isoxazol-6-yl)-2-((R)-4-(4-fluoro-1-(2-(trifluoromethyl)pyridin-4-yl)-1H-pyrazol-3-yl)-3-oxomorpholin-2-yl)-2-hydroxypropanamide]",36.2
23,"C[C@](O)(C(=O)Nc1ccc2c(N)noc2c1)[C@H]1OCCN(c2nn(-c3ccnc(C#N)c3)cc2F)C1=O [Example 31, (R)—N-(3-aminobenzo[d]isoxazol-6-yl)-2-((R)-4-(1-(2-cyanopyridin-4-yl)-4-fluoro-1H-pyrazol-3-yl)-3-oxomorpholin-2-yl)-2-hydroxypropanamide]",31
24,"COc1cc(-n2cc(Cl)c(N3CCO[C@H]([C@@](C)(O)C(=O)Nc4ccc5c(N)noc5c4)C3=O)n2)ccn1 [Example 33, (R)—N-(3-aminobenzo[d]isoxazol-6-yl)-2-((R)-4-(4-chloro-1-(2-methoxypyridin-4-yl)-1H-pyrazol-3-yl)-3-oxomorpholin-2-yl)-2-hydroxypropanamide]",817
25,"C[C@](O)(C(=O)Nc1ccc2c(N)noc2c1)[C@H]1OCCN(c2nn(-c3ccnc(C#N)c3)cc2Cl)C1=O [Example 34, (R)—N-(3-aminobenzo[d]isoxazol-6-yl)-2-((R)-4-(4-chloro-1-(2-cyanopyridin-4-yl)-1H-pyrazol-3-yl)-3-oxomorpholin-2-yl)-2-hydroxypropanamide]",570
26,"COc1cc(-n2cc(C)c(N3CCO[C@H]([C@@](C)(O)C(=O)Nc4ccc5c(N)noc5c4)C3=O)n2)ccn1 [Example 35, (R)—N-(3-aminobenzo[d]isoxazol-6-yl)-2-hydroxy-2-((R)-4-(1-(2-methoxypyridin-4-yl)-4-methyl-1H-pyrazol-3-yl)-3-oxomorpholin-2-yl)propanamide]",694
27,"COc1cc(-n2nc(N3CCO[C@H]([C@@](C)(O)C(=O)Nc4ccc5c(N)noc5c4)C3=O)cc2C)ccn1 [Example 36, (R)—N-(3-aminobenzo[d]isoxazol-6-yl)-2-hydroxy-2-((R)-4-(1-(2-methoxypyridin-4-yl)-5-methyl-1H-pyrazol-3-yl)-3-oxomorpholin-2-yl)propanamide]",96.3
